Measurements as given in US6984656B2, “Core modified porphyrins” (priority 2001, dated 2006).

Columns and labels:
cytochrome c oxidase = assay: Whole cell mitochondrial cytochrome c oxidase activity in R3230AC cells; format: cell-based, rat
Procedure: In parallel experiments, mitochondrial cytochrome c oxidase activity was determined after exposure of R3230AC cells to the same porphyrins either in the dark or 24 h after light exposure (FIG. 8b). […] In contrast, MA-99 inhibited whole cell cytochrome c oxidase activity by 60% after a 24-h incubation period in R3230AC cells. […] Cytochrome c oxidase activity in R3230AC cells irradiated in the presence of MA-99 was inhibited by 95%, […] in enzyme activity compared to that obtained from cells incubated with MA-99, but not exposed to light.
Determination of the effects of dyes on intracellular mitochondrial cytochrome c oxidase are performed on cultured R3230AC cells. Cultures are seeded at 1×10^5 cells/well on 12-well plates in 1.0 mL MEM (described above). Twenty-four h later, sensitizers are added at concentrations ranging from 10^−4 to 10^−6 M. Cells are incubated in the dark with the sensitizers in MEM for 24 h in a 37° C. incubator. […] Cytochrome c oxidase is measured as above after cell suspensions are thawed and sonicated on ice after 30 s at 10 s bursts using a Branson probe sonifier set at a power of 2. The whole-cell lysate is added to the cytochrome c reaction mixture and results are expressed as the amount of cytochrome c oxidase activity per 10^5 cells.

BALB/c mice = assay: Preliminary toxicity, single intravenous injection in BALB/c mice

Which results are given for `O=C([O-])COc1ccc(-c2c3nc(c(-c4ccc(F)cc4)c4ccc(s4)c(-c4ccc(F)cc4)c4nc(c(-c5ccc(OCC(=O)[O-])cc5)c5ccc2s5)C=C4)C=C3)cc1.[Na+].[Na+]` [MA-99]?
inhibition of whole cell cytochrome c oxidase activity in the dark (cytochrome c oxidase; 24-h incubation, dark): 60%; reduction of cytochrome c oxidase activity after irradiation (cytochrome c oxidase; 24 h after 0.9 J cm^−2 of 590-750 nm light, vs control untreated cells): 95%; gross abnormalities in organs and tissues after sacrifice (BALB/c mice; 10 mg/kg i.v., after 90 days): no gross abnormalities were noted; toxicity and morbidity (BALB/c mice; 10 mg/kg, followed 90 days post-injection, normal vivarium light): neither toxicity nor morbidity was observed
